# Experiments:
# [1] = Inhibition of N-terminal His6-tagged Plasmodium falciparum DHODH expressed in Escherichia coli BL21 using L-DHO as substrate and CoQ as co-substrate by DCIP dye based spectrophotometric assay
# [2] = Inhibition of N-terminal His6-tagged Plasmodium vivax DHODH expressed in Escherichia coli BL21 using L-DHO as substrate and CoQ as co-substrate by DCIP dye based spectrophotometric assay
# Plasmodium falciparum = experiment: Antiplasmodial activity against Plasmodium falciparum 3D7 infected in RBC assessed as reduction in parasitemia incubated for 72 hrs by SYBR green dye-based assay; format: functional, organism-based; settings: rbc
# [3] = Inhibition of N-terminal His6-tagged dog DHODH expressed in Escherichia coli BL21 using L-DHO as substrate and CoQ as co-substrate by DCIP dye based spectrophotometric assay; set-up: species or system Canis lupus familiaris
# [4] = Lipophilicity, logD of the compound at pH 7.4; format: physicochemical; settings: buffer
# [5] = Kinetic solubility of compound in phosphate buffer at pH 6.5 measured after 30 mins by HPLC-UV based analysis; format: physicochemical; settings: phosphate buffer, pH 6.5, read-out: Kinetic_solubility
# [6] = Protein binding in human plasma assessed as bound fraction by LC-MS analysis based ultracentrifugation assay; format: ADME, cell-free; settings: read-out: PPB (converted)
# [7] = Protein binding in rat plasma assessed as bound fraction by LC-MS analysis based ultracentrifugation assay; format: ADME, cell-free; settings: read-out: PPB (converted)
# [8] = Intrinsic clearance in rat liver microsomes assessed per mg protein at 1 uM by LC-MS analysis; format: ADME, Microsome; settings: microsomes, 1 µM
# [9] = Intrinsic clearance in mouse liver microsomes at 1 uM by LC-MS analysis; format: ADME, Microsome
# [10] = Solubility of compound in 0.1 N HCl measured after 5 to 6 hrs by HPLC-UV based analysis; format: physicochemical; settings: buffer; time 5-6 hrs
# [11] = Solubility of compound in FeSSIF at pH 5 measured after 5 to 6 hrs by HPLC-UV based analysis; format: physicochemical; settings: simulated gi fluid, time 5-6 hrs
# [12] = Tmax in Swiss mouse at 20 mg/kg, po administered as single dose via gavage measured over 24 hrs by LC-MS analysis; format: ADME, organism-based; settings: in vivo
# [13] = Apparent half-life in Swiss mouse at 20 mg/kg, po administered as single dose via gavage measured over 24 hrs by LC-MS analysis; format: ADME, organism-based; settings: in vivo
# [14] = Cmax in Swiss mouse at 20 mg/kg, po administered as single dose via gavage measured over 24 hrs by LC-MS analysis; format: ADME, organism-based; set-up: route oral, dose 20 mg/kg, time >24; settings: in vivo
# [15] = AUC (0 to infinity) in Swiss mouse at 20 mg/kg, po administered as single dose via gavage measured over 24 hrs by LC-MS analysis; format: ADME, organism-based; set-up: route oral, dose 20 mg/kg, time >24; settings: in vivo
# [16] = Unbound Cmax in Swiss mouse at 20 mg/kg, po administered as single dose via gavage measured over 24 hrs by LC-MS analysis; format: ADME, organism-based; settings: in vivo
# [17] = Unbound AUC (0 to infinity) in Swiss mouse at 20 mg/kg, po administered as single dose via gavage measured over 24 hrs by LC-MS analysis; format: ADME, organism-based; settings: in vivo
# [18] = Elimination half-life in Swiss mouse at 20 mg/kg, po administered as single dose via gavage measured over 24 hrs by LC-MS analysis; format: ADME, organism-based; settings: in vivo, read-out: beta t1/2 (converted)
# [19] = Apparent half-life in Sprague-Dawley rat at […], iv administered as infusion for 10 mins by LC-MS analysis; format: ADME, organism-based; settings: in vivo, dose 1.1 mg/kg, read-out: t1/2(app) (converted)
# [20] = AUC (0 to infinity) in Sprague-Dawley rat at […], iv administered as infusion for 10 mins by LC-MS analysis; format: ADME, organism-based; set-up: route intravenous, dose 1.1 mg/kg, time 10 min; settings: in vivo
# [21] = Unbound clearance in Sprague-Dawley rat at […], iv administered as infusion for 10 mins by LC-MS analysis; format: ADME, organism-based; settings: in vivo, dose 1.1 mg/kg
# [22] = Volume of distribution at steady state in Sprague-Dawley rat at […], iv administered as infusion for 10 mins by LC-MS analysis; format: ADME, organism-based; settings: in vivo, dose 1.1 mg/kg
# [23] = Unbound volume of distribution at steady state in Sprague-Dawley rat at […], iv administered as infusion for 10 mins by LC-MS analysis; format: ADME, organism-based; settings: in vivo, dose 1.1 mg/kg
# [24] = Cmax in Sprague-Dawley rat at 18.3 mg/kg, po measured over 24 hrs by LC-MS analysis; format: ADME, organism-based; set-up: route oral, dose 18.3 mg/kg, time >24; settings: in vivo
# [25] = Unbound Cmax in Sprague-Dawley rat at 18.3 mg/kg, po measured over 24 hrs by LC-MS analysis; format: ADME, organism-based; settings: in vivo
# [26] = AUC (0 to infinity) in Sprague-Dawley rat at 18.3 mg/kg, po measured over 24 hrs by LC-MS analysis; format: ADME, organism-based; set-up: route oral, dose 18.3 mg/kg, time >24; settings: in vivo
# [27] = Unbound AUC (0 to infinity) in Sprague-Dawley rat at 18.3 mg/kg, po measured over 24 hrs by LC-MS analysis; format: ADME, organism-based; settings: in vivo
# [28] = Oral bioavailability in Sprague-Dawley rat at 18.3 mg/kg measured over 24 hrs by LC-MS analysis; format: ADME, organism-based; settings: in vivo
# [29] = Unbound AUC (0 to infinity) in Sprague-Dawley rat at […], iv by LC-MS analysis; format: ADME, organism-based; settings: in vivo, dose 1.1 mg/kg
# [30] = Inhibition of yeast DHODH expressed in Plasmodium falciparum; set-up: species or system Saccharomyces cerevisiae
# [31] = Protein binding in Swiss mouse plasma at 20 mg/kg, po administered as single dose via gavage measured over 24 hrs by LC-MS analysis; format: ADME, organism-based; settings: read-out: PPB (converted)
# [32] = Protein binding in Sprague-Dawley rat plasma at […], iv administered as infusion for 10 mins by LC-MS analysis; format: ADME, organism-based; settings: dose 1.1 mg/kg, read-out: PPB (converted)
# in vivo = settings: Sprague-Dawley, rat, po, 18.3 mg/kg
# [33] = Solubility of compound in FaSSIF at pH 6.5 measured after 5 to 6 hrs by HPLC-UV based analysis
smiles,measurement,setting,value
Cc1cc(NC2CCc3ccc(Br)cc3C2)n2nc(C(C)(F)F)nc2n1 (stereo in doubt),IC50,[1],4.6 nM
same,IC50,[2],12 nM
same,EC50,Plasmodium falciparum,0.39 nM
same,IC50,[3],> 100000 nM
same,logD,[4],4
same,solubility kinetic at 0.5 h,[5],1.6 µg/mL
same,fraction unbound,[6],0.037
same,fraction unbound,[7],0.028
same,Intrinsic clearance in rat liver microsomes (uL/min/mg protein),[8],39 µL/min
same,intrinsic clearance,[9],32 µL/min
same,solubility,[10],52 µg/mL
same,solubility,[11],39 µg/mL
same,Tmax,[12],1 h
same,t1/2(app),[13],2.1 h
same,Cmax,[14],4.5 µM
same,AUC,[15],16.7 µM·h
same,fCmax,[16],0.13 µM
same,fAUC,[17],0.47 µM·h
same,half-life,[18],2 h
same,half-life at 10 min,[19],6.1 h
same,AUC(0-inf) at 10 min,[20],2 µM·h
same,CL free,[21],800 mL/min/kg
same,Vdss,[22],8.7 L/kg
same,fVdss,[23],311 L/kg
same,Cmax,[24],2.7 µM
same,fCmax,[25],0.07 µM
same,AUC(0-inf),[26],28.1 µM·h
same,fAUC,[27],0.79 µM·h
same,bioavailability,[28],86%
same,fAUC,[29],0.05 µM·h
same,EC50,[30],7400 nM
same,fraction unbound at 24 h,[31],0.028
same,fraction unbound at 10 min,[32],0.028
same,Tmax at 24 h,in vivo,3.3 h
same,solubility,[33],8.3 µg/mL

# From ChEMBL document CHEMBL4706474, “Tetrahydro-2-naphthyl and 2-Indanyl Triazolopyrimidines Targeting Plasmodium falciparum Dihydroorotate Dehydrogenase Display Potent and Selective Antimalarial Activity” (J Med Chem, 2016)
